The subject of experiment [1] is HT-29 cells (colorectal adenocarcinoma). The experiment is described as follows: Inhibition of cancer cell proliferation, HT-29 (CellTiterGlo, 72 hours). The format is cell-based. To be noted: Homo sapiens. In outline:
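HT-29 cells seeded at 3000/well, then treated with 3-fold serial dilutions from a 5,000 nM two-fold solution in serum-free RPMI1640, untreated wells as control, for 72 h at 37° C. CellTiterGlo luminescence converted to cell number via a standard curve; GI50 from percent inhibition versus untreated growth.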
A general note: In ATP-based viability assays light output follows the ATP content of the culture.

Experiment [2] deals with HCT116 cells (colorectal carcinoma). Description: Inhibition of cancer cell proliferation, HCT116 (CellTiterGlo, 72 hours). The format is cell-based. The settings on record: Homo sapiens, HCT-116. In outline:
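3000 cells per well exposed to 3-fold serial compound dilutions from 5,000 nM (two-fold solution, stock level) for 72 hours at 37° C. CellTiterGlo luminescence converted to cell number via a standard curve; percent inhibition vs untreated wells, GI50 by curve fit.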

Each structure is given as a SMILES string.

For `C=CC(=O)Nc1cc(C)ccc1Nc1nc(Nc2cc(OC)nc(N3CCN(C(C)=O)CC3)c2)ncc1Cl` [Compound I-296, N-(2-((2-((2-(4-acetylpiperazin-1-yl)-6-methoxypyridin-4-yl)amino)-5-chloropyrimidin-4-yl)amino)-5-methylphenyl)acrylamide], the GI50 in experiment [1] and in experiment [2] was below 100 nM in each case.

For the compound `C=CC(=O)Nc1ccccc1Nc1nc(Nc2cc(OC)cc(OC)c2)ncc1C(F)(F)F` [Compound I-338, N-(2-((2-((3,5-dimethoxyphenyl)amino)-5-(trifluoromethyl)pyrimidin-4-yl)amino)phenyl)acrylamide], the GI50 in experiment [1] and in experiment [2] was below 100 nM throughout.

For `C=CC(=O)Nc1ccccc1Nc1nc(Nc2cc(NCCOC)nc(OC)c2)ncc1C(F)(F)F` [Compound I-286, N-(2-((2-((2-Methoxy-6-((2-methoxyethyl)amino)pyridin-4-yl)amino)-5-(trifluoromethyl)pyrimidin-4-yl)amino)phenyl)acrylamide], the GI50 in experiment [1] and in experiment [2] was below 100 nM throughout.

`C=CC(=O)Nc1cc(C)ccc1Nc1nc(Nc2cc(OC)nc(N3CCN(CC)CC3)c2)ncc1C(F)(F)F` [Compound I-89, N-(2-((2-((2-(4-Ethylpiperazin-1-yl)-6-methoxypyridin-4-yl)amino)-5-(trifluoromethyl)pyrimidin-4-yl)amino)-5-methylphenyl)acrylamide]: the GI50 in experiment [1] and in experiment [2] was below 100 nM throughout.

Regarding `C=CC(=O)Nc1ccccc1Nc1nc(N[C@H]2CCN(S(C)(=O)=O)C2)ncc1C(F)(F)F` [Compound I-58, (S)—N-(2-((2-((1-(Methylsulfonyl)pyrrolidin-3-yl)amino)-5-(trifluoromethyl)pyrimidin-4-yl)amino)phenyl)acrylamide], the GI50 in experiment [1] and in experiment [2] was 101 to 500 nM each time.

Regarding `C=CC(=O)Nc1ccccc1Nc1nc(Nc2cc(OC)nc(OCCOC)c2)ncc1C(F)(F)F` [Compound I-283, N-(2-((2-((2-Methoxy-6-(2-methoxyethoxyl)pyridin-4-yl)amino)-5-(trifluoromethyl)pyrimidin-4-yl)amino)phenyl)acrylamide], the GI50 in experiment [1] and in experiment [2] was below 100 nM each time.

For `C=CC(=O)Nc1ccccc1Nc1nc(Nc2ccnnc2)ncc1C(F)(F)F` [Compound I-293, N-(2-((2-(Pyridazin-4-ylamino)-5-(trifluoromethyl)pyrimidin-4-yl)amino)phenyl)acrylamide], the figures for the GI50 in experiment [1] and in experiment [2] were below 100 nM and 101 to 500 nM, respectively.

Regarding `C=CC(=O)Nc1ccccc1Nc1nc(Nc2cc(N[C@H]3CC[C@@H](O)CC3)nc(OC)c2)ncc1C(F)(F)F` [Compound I-292], in experiment [2], the GI50 is below 100 nM.

On to `C=CC(=O)Nc1cc(OC)ccc1Nc1nc(Nc2cc(OC)nc(N3CCN(C(C)=O)CC3)c2)ncc1C(F)(F)F` [Compound I-91, N-(2-((2-((2-(4-Acetylpiperazin-1-yl)-6-methoxypyridin-4-yl)amino)-5-(trifluoromethyl)pyrimidin-4-yl)amino)-5-methoxyphenyl)acrylamide], for which the GI50 in experiment [1] and in experiment [2] was below 100 nM throughout.

Turning to `C=CC(=O)Nc1cc(OC)ccc1Nc1nc(Nc2cc(OC)ncc2C)ncc1Cl` [Compound I-242, N-(2-((5-chloro-2-((2-methoxy-5-methylpyridin-4-yl)amino)pyrimidin-4-yl)amino)-5-methoxyphenyl)acrylamide], the results for the concentration for 50% growth inhibition (GI50) in experiment [1] and in experiment [2] were below 100 nM and 101 to 500 nM, respectively.

Turning to `C=CC(=O)Nc1cc(C)ccc1Nc1nc(Nc2cc(OC)nc(N3CC(O)C3)c2)ncc1C(F)(F)F` [Compound I-328, N-(2-((2-((2-(3-hydroxyazetidin-1-yl)-6-methoxypyridin-4-yl)amino)-5-(trifluoromethyl)pyrimidin-4-yl)amino)-5-methylphenyl)acrylamide], the GI50 in experiment [1] and in experiment [2] was below 100 nM in each case.

`C=CS(=O)(=O)Nc1cc(C)ccc1Nc1nc(Nc2cc(OC)ncc2C)ncc1C(F)(F)F` [Compound I-333, N-(2-((2-((2-methoxy-5-methylpyridin-4-yl)amino)-5-(trifluoromethyl)pyrimidin-4-yl)amino)-5-methylphenyl)ethenesulfonamide]: the GI50 in experiment [1] and in experiment [2] was above 1000 nM in each case.

On to `C=CC(=O)Nc1ccccc1Nc1nc(N[C@H]2CCN(C(C)=O)C2)ncc1C(F)(F)F` [Compound I-56, (S)—N-(2-((2-((1-Acetylpyrrolidin-3-yl)amino)-5-(trifluoromethyl)pyrimidin-4-yl)amino)phenyl)acrylamide], for which the GI50 in experiment [1] and in experiment [2] was 101 to 500 nM throughout.

For `C=CC(=O)Nc1ccccc1Nc1nc(Nc2cc(OC)ccc2C)ncc1C(F)(F)F` [Compound I-340, N-(2-((2-((5-methoxy-2-methylphenyl)amino)-5-(trifluoromethyl)pyrimidin-4-yl)amino)phenyl)acrylamide], the 50% growth inhibitory concentration (GI50) in experiment [1] lay in the range of 101 to 500 nM; in experiment [2], 501 to 999 nM.

On to `C=CC(=O)Nc1cc(OC)ccc1Nc1nc(Nc2cc(Cl)nc(OC)c2)ncc1Cl` [Compound I-245, N-(2-((5-chloro-2-((2-chloro-6-methoxypyridin-4-yl)amino)pyrimidin-4-yl)amino)-5-methoxyphenyl)acrylamide], for which the GI50 in experiment [1] and in experiment [2] was 101 to 500 nM throughout.

For the compound `C=CC(=O)Nc1cc(C)ccc1Nc1nc(Nc2cc(NC3CC3)nc(OC)c2)ncc1C(F)(F)F` [Compound I-337, N-(2-((2-((2-(cyclopropylamino)-6-methoxypyridin-4-yl)amino)-5-(trifluoromethyl)pyrimidin-4-yl)amino)-5-methylphenyl)acrylamide], the GI50 in experiment [1] and in experiment [2] was below 100 nM throughout.

Consider `C=CC(=O)Nc1ccccc1Nc1nc(Nc2cc(OC)nc(N3CCN(C)CC3)c2)ncc1C(F)(F)F` [Compound I-324, N-(2-((2-((2-methoxy-6-(4-methylpiperazin-1-yl)pyridin-4-yl)amino)-5-(trifluoromethyl)pyrimidin-4-yl)amino)phenyl)acrylamide], for which the GI50 in experiment [1] and in experiment [2] was below 100 nM throughout.

Turning to `C=CC(=O)Nc1cc(C)ccc1Nc1nc(Nc2cc(OC)cc(OC)c2)ncc1C(F)(F)F` [Compound I-339, N-(2-((2-((3,5-dimethoxyphenyl)amino)-5-(trifluoromethyl)pyrimidin-4-yl)amino)-5-methylphenyl)acrylamide], the GI50 in experiment [1] and in experiment [2] was below 100 nM throughout.

Turning to `C=CC(=O)Nc1ccccc1Nc1nc(Nc2cc(OC)nc(OC)c2)ncc1C(F)(F)F` [Compound I-95, N-(2-((2-((2,6-Dimethoxypyridin-4-yl)amino)-5-(trifluoromethyl)pyrimidin-4-yl)amino)phenyl)acrylamide], the GI50 in experiment [1] and in experiment [2] was below 100 nM throughout.

With `C=CC(=O)Nc1ccccc1Nc1nc(N[C@H]2CCN(C(=O)CO)C2)ncc1C(F)(F)F` [Compound I-57, (S)—N-(2-((2-((1-(2-Hydroxyacetyl)pyrrolidin-3-yl)amino)-5-(trifluoromethyl)pyrimidin-4-yl)amino)phenyl)acrylamide], the GI50 in experiment [1] and in experiment [2] was 101 to 500 nM throughout.

In the case of `C=CC(=O)Nc1cc(C)ccc1Nc1nc(Nc2cc(C(N)=O)ccn2)ncc1Cl` [Compound I-238, 2-((4-((2-acrylamido-4-methylphenyl)amino)-5-chloropyrimidin-2-yl)amino)isonicotinamide], the results for the GI50 in experiment [1] and in experiment [2] were 101 to 500 nM and above 1000 nM, respectively.

Consider `C=CC(=O)Nc1ccccc1Nc1nc(Nc2cc(OC)nc(N3CCCCC3)c2)ncc1C(F)(F)F` [Compound I-282, N-(2-((2-((2-Methoxy-6-(piperidin-1-yl)pyridin-4-yl)amino)-5-(trifluoromethyl)pyrimidin-4-yl)amino)phenyl)acrylamide], for which the GI50 in experiment [1] and in experiment [2] was below 100 nM in each case.

With `C=CC(=O)Nc1cc(OC)ccc1Nc1nc(Nc2cc(OC)ncc2C)ncc1C(F)(F)F` [Compound I-284, N-(5-Methoxy-2-((2-((2-methoxy-5-methylpyridin-4-yl)amino)-5-(trifluoromethyl)pyrimidin-4-yl)amino)phenyl)acrylamide], the GI50 in experiment [1] lay in the range of 501 to 999 nM; in experiment [2], 101 to 500 nM.

Consider `C=CC(=O)Nc1ccccc1Nc1nc(N[C@H]2CCCN(C(C)=O)C2)ncc1Cl` [Compound I-115, (S)—N-(2-((2-((1-acetylpiperidin-3-yl)amino)-5-chloropyrimidin-4-yl)amino)phenyl)acrylamide], for which the GI50 in experiment [1] is below 100 nM; in experiment [2] it was 101 to 500 nM.

With `C=CC(=O)Nc1cc(C)ccc1Nc1nc(Nc2cc(OC)ncc2C)ncc1C(F)(F)F` [Compound I-90, N-(2-((2-((2-Methoxy-5-methylpyridin-4-yl)amino)-5-(trifluoromethyl)pyrimidin-4-yl)amino)-5-methylphenyl)acrylamide], the GI50 in experiment [1] lay within 101 to 500 nM; in experiment [2] it was 501 to 999 nM.

In the case of `C=CC(=O)Nc1ccccc1Nc1nc(N[C@@H]2CCN(C(C)=O)C2)ncc1C(F)(F)F` [Compound I-60, (R)—N-(2-((2-((1-Acetylpyrrolidin-3-yl)amino)-5-(trifluoromethyl)pyrimidin-4-yl)amino)phenyl)acrylamide], the GI50 in experiment [1] fell in the range of 101 to 500 nM; in experiment [2] it was 501 to 999 nM.

With `C=CC(=O)Nc1cc(C)ccc1Nc1nc(Nc2cc(OC)nc(N3CCOCC3)c2)ncc1C(F)(F)F` [Compound I-94, N-(2-((2-((2-Methoxy-6-morpholinopyridin-4-yl)amino)-5-(trifluoromethyl)pyrimidin-4-yl)amino)-5-methylphenyl)acrylamide], the concentration for 50% growth inhibition (GI50) in experiment [1] and in experiment [2] was below 100 nM in each case.

In experiment [2], `C=CC(=O)Nc1cc(C)ccc1Nc1nc(Nc2cc(N[C@H]3CC[C@@H](O)CC3)nc(OC)c2)ncc1C(F)(F)F` [Compound I-326, N-(2-((2-((2-((cis-4-hydroxycyclohexyl)amino)-6-methoxypyridin-4-yl)amino)-5-(trifluoromethyl)pyrimidin-4-yl)amino)-5-methylphenyl)acrylamide] returned a GI50 below 100 nM.

As a reminder, the GI50 is the concentration at which growth is held to half of that of the control. High values mean less potent growth inhibition, low ones more potent growth inhibition.

(Values after patent publication US9561228B2 (Celgene Avilomics Research, Inc., priority 2013, dated 2017).)
